Test results published in PubChem BioAssay (NCI).
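Grown in 96-well plates, cells were treated for 48 hours with each compound at five concentrations. Insufficient inhibition: endpoint recorded as highest concentration tested. At the TGI there is no net growth.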

How the values were obtained:
Assay in all cases: NCI anticancer screen, dose series, 48 h
HS 578T breast = test system: HS 578T breast
K-562 leukemia = test system: K-562 leukemia
UACC-62 melanoma = test system: UACC-62 melanoma
HCT-15 colon = test system: HCT-15 colon
SK-MEL-2 melanoma = test system: SK-MEL-2 melanoma
OVCAR-4 ovarian = test system: OVCAR-4 ovarian
MDA-N = test system: MDA-N
SK-MEL-28 melanoma = test system: SK-MEL-28 melanoma
BT-549 breast = test system: BT-549 breast
OVCAR-8 ovarian = test system: OVCAR-8 ovarian
KM12 colon = test system: KM12 colon
MOLT-4 leukemia = test system: MOLT-4 leukemia
HT29 colon = test system: HT29 colon
UACC-257 melanoma = test system: UACC-257 melanoma
MCF7 breast = test system: MCF7 breast
RPMI-8226 leukemia = test system: RPMI-8226 leukemia
IGROV1 ovarian = test system: IGROV1 ovarian
HL-60(TB) leukemia = test system: HL-60(TB) leukemia
786-0 renal = test system: 786-0 renal
SK-MEL-5 melanoma = test system: SK-MEL-5 melanoma
A549 NSCLC = test system: A549 NSCLC
T-47D breast = test system: T-47D breast
NCI-H23 lung = test system: NCI-H23 lung
ACHN renal = test system: ACHN renal
MALME-3M melanoma = test system: MALME-3M melanoma
SF-295 CNS = test system: SF-295 CNS
LOX IMVI melanoma = test system: LOX IMVI melanoma
SW-620 colon = test system: SW-620 colon
NCI-H522 lung = test system: NCI-H522 lung
CAKI-1 renal = test system: CAKI-1 renal
HCC-2998 colon = test system: HCC-2998 colon
SR leukemia = test system: SR leukemia
HOP-62 NSCLC = test system: HOP-62 NSCLC
TK-10 renal = test system: TK-10 renal
HCT-116 colon = test system: HCT-116 colon
SF-268 CNS = test system: SF-268 CNS
NCI/ADR-RES ovarian = test system: NCI/ADR-RES ovarian
COLO 205 colon = test system: COLO 205 colon
MDA-MB-231 breast = test system: MDA-MB-231 breast
SNB-19 CNS = test system: SNB-19 CNS
MDA-MB-435 = test system: MDA-MB-435
SN12C renal = test system: SN12C renal
DU-145 prostate = test system: DU-145 prostate
NCI-H460 lung = test system: NCI-H460 lung
OVCAR-3 ovarian = test system: OVCAR-3 ovarian
SF-539 CNS = test system: SF-539 CNS
UO-31 renal = test system: UO-31 renal
NCI-H226 lung = test system: NCI-H226 lung
CCRF-CEM leukemia = test system: CCRF-CEM leukemia
EKVX NSCLC = test system: EKVX NSCLC
U251 CNS = test system: U251 CNS
SNB-75 CNS = test system: SNB-75 CNS
PC-3 prostate = test system: PC-3 prostate
M14 melanoma = test system: M14 melanoma
SK-OV-3 ovarian = test system: SK-OV-3 ovarian
OVCAR-5 ovarian = test system: OVCAR-5 ovarian
RXF 393 renal = test system: RXF 393 renal
A498 renal = test system: A498 renal

For `CN1C(=O)C2CCC(=O)N2c2cccnc21` (stereo not given), the TGI (HS 578T breast) was > 100 µM, the TGI (K-562 leukemia) was > 100 µM and the TGI (UACC-62 melanoma) was > 100 µM. For the same compound, the TGI (HCT-15 colon) was > 100 µM, the TGI (SK-MEL-2 melanoma) was > 100 µM and the TGI (OVCAR-4 ovarian) was > 100 µM. The TGI (MDA-N) was > 100 µM, the TGI (SK-MEL-28 melanoma) was > 100 µM and the TGI (BT-549 breast) was > 100 µM. For the same compound, the TGI (OVCAR-8 ovarian) was > 100 µM, the TGI (KM12 colon) was > 100 µM and the TGI (MOLT-4 leukemia) was > 100 µM. The TGI (HT29 colon) was > 100 µM, the TGI (UACC-257 melanoma) was > 100 µM and the TGI (MCF7 breast) was > 100 µM. The TGI (RPMI-8226 leukemia) was > 100 µM, the TGI (IGROV1 ovarian) was > 100 µM and the TGI (HL-60(TB) leukemia) was > 100 µM. The TGI (786-0 renal) was > 100 µM, the TGI (SK-MEL-5 melanoma) was > 100 µM and the TGI (A549 NSCLC) was > 100 µM. For the same compound, the TGI (T-47D breast) was > 100 µM, the TGI (NCI-H23 lung) was > 100 µM and the TGI (ACHN renal) was > 100 µM. The TGI (MALME-3M melanoma) was > 100 µM, the TGI (SF-295 CNS) was > 100 µM and the TGI (LOX IMVI melanoma) was > 100 µM. For the same compound, the TGI (SW-620 colon) was > 100 µM, the TGI (NCI-H522 lung) was > 100 µM and the TGI (CAKI-1 renal) was > 100 µM. The TGI (HCC-2998 colon) was > 100 µM, the TGI (SR leukemia) was > 100 µM and the TGI (HOP-62 NSCLC) was > 100 µM. For the same compound, the TGI (TK-10 renal) was > 100 µM, the TGI (HCT-116 colon) was > 100 µM and the TGI (SF-268 CNS) was > 100 µM. The TGI (NCI/ADR-RES ovarian) was > 100 µM, the TGI (COLO 205 colon) was > 100 µM and the TGI (MDA-MB-231 breast) was > 100 µM. The TGI (SNB-19 CNS) was > 100 µM, the TGI (MDA-MB-435) was > 100 µM and the TGI (SN12C renal) was > 100 µM. The TGI (DU-145 prostate) was > 100 µM, the TGI (NCI-H460 lung) was > 100 µM and the TGI (OVCAR-3 ovarian) was > 100 µM. The TGI (SF-539 CNS) was > 100 µM, the TGI (UO-31 renal) was > 100 µM and the TGI (NCI-H226 lung) was > 100 µM. The TGI (CCRF-CEM leukemia) was > 100 µM, the TGI (EKVX NSCLC) was > 100 µM and the TGI (U251 CNS) was > 100 µM.
In the case of `COCO[C@@H]1C[C@H]2C(=O)Nc3ccccc3C(=O)N2C1`, the TGI (HS 578T breast) is reported as > 100 µM, the TGI (UACC-62 melanoma) is reported as > 100 µM and the TGI (HCT-15 colon) is reported as > 100 µM. The TGI (SK-MEL-2 melanoma) was > 100 µM, the TGI (OVCAR-4 ovarian) was > 100 µM and the TGI (MDA-N) was > 100 µM. For the same compound, the TGI (SK-MEL-28 melanoma) was > 100 µM, the TGI (BT-549 breast) was > 100 µM and the TGI (SNB-75 CNS) was > 100 µM. For the same compound, the TGI (OVCAR-8 ovarian) was > 100 µM, the TGI (KM12 colon) was > 100 µM and the TGI (HT29 colon) was > 100 µM. The TGI (UACC-257 melanoma) was > 100 µM, the TGI (PC-3 prostate) was > 100 µM and the TGI (MCF7 breast) was > 100 µM. The TGI (IGROV1 ovarian) was > 100 µM, the TGI (786-0 renal) was > 100 µM and the TGI (SK-MEL-5 melanoma) was > 100 µM. For the same compound, the TGI (A549 NSCLC) was > 100 µM, the TGI (T-47D breast) was > 100 µM and the TGI (NCI-H23 lung) was > 100 µM. For the same compound, the TGI (ACHN renal) was > 100 µM, the TGI (MALME-3M melanoma) was > 100 µM and the TGI (M14 melanoma) was > 100 µM. For the same compound, the TGI (SF-295 CNS) was > 100 µM, the TGI (LOX IMVI melanoma) was > 100 µM and the TGI (SW-620 colon) was > 100 µM. The TGI (NCI-H522 lung) was 37.5 µM, the TGI (SK-OV-3 ovarian) was > 100 µM and the TGI (CAKI-1 renal) was > 100 µM. The TGI (HOP-62 NSCLC) was 90.1 µM, the TGI (OVCAR-5 ovarian) was > 100 µM and the TGI (TK-10 renal) was > 100 µM. For the same compound, the TGI (HCT-116 colon) was > 100 µM, the TGI (RXF 393 renal) was 41.7 µM and the TGI (SF-268 CNS) was > 100 µM. The TGI (NCI/ADR-RES ovarian) was > 100 µM, the TGI (COLO 205 colon) was > 100 µM and the TGI (MDA-MB-231 breast) was > 100 µM. For the same compound, the TGI (SNB-19 CNS) was > 100 µM, the TGI (MDA-MB-435) was > 100 µM and the TGI (SN12C renal) was > 100 µM. For the same compound, the TGI (DU-145 prostate) was > 100 µM, the TGI (A498 renal) was > 100 µM and the TGI (SF-539 CNS) was > 100 µM. For the same compound, the TGI (UO-31 renal) was 74.5 µM, the TGI (NCI-H226 lung) was > 100 µM and the TGI (EKVX NSCLC) was > 100 µM. For the same compound, the TGI (U251 CNS) was > 100 µM.
